From ChEMBL document CHEMBL5465560, “Selectivity Literature for EUbOPEN Chemogenomic Library” (2024) come the findings set out here.

Test [1] deals with CDK6/cyclin D1 (Homo sapiens) (UniProt P24385+Q00534). Kind of test: (§1) Selectivity interaction (Rxn Biology Kinase assay) EUB0001632a CDK6. Format: protein-complex assay. The following applies: at 10 µM.
Test [2] deals with CDK6/cyclin D3 (Homo sapiens) (UniProt P30281+Q00534). The description is as §1. Format: protein-complex assay. The settings on record: at 10 µM.
Test [3] deals with Phosphorylase b kinase gamma catalytic chain, skeletal muscle/heart isoform (Homo sapiens) (UniProt Q16816). Kind of test: Selectivity interaction (KinomeScan (DiscoverX)) EUB0000607a PHKG1. The settings on record: at 10 µM.
Sequence of Phosphorylase b kinase gamma catalytic chain, skeletal muscle/heart isoform (Homo sapiens) (Q16816 whole entry, looked up, canonical isoform): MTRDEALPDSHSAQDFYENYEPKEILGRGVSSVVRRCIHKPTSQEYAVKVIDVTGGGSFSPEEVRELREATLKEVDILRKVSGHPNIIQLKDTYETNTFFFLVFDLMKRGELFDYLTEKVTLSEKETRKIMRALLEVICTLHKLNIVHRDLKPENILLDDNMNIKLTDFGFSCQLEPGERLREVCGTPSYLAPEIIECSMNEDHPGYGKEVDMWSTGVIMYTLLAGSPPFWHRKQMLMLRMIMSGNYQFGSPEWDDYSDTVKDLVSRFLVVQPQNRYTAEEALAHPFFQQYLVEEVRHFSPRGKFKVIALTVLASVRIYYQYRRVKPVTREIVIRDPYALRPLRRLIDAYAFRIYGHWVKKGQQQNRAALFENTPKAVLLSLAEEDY
In test [4] the target is Serine/threonine-protein kinase 33 (Homo sapiens) (UniProt Q9BYT3). Kind of test: Selectivity interaction (KinomeScan (DiscoverX)) EUB0000607a STK33. The settings on record: at 10 µM.
Sequence of Serine/threonine-protein kinase 33 (Homo sapiens) (Q9BYT3 whole entry, looked up): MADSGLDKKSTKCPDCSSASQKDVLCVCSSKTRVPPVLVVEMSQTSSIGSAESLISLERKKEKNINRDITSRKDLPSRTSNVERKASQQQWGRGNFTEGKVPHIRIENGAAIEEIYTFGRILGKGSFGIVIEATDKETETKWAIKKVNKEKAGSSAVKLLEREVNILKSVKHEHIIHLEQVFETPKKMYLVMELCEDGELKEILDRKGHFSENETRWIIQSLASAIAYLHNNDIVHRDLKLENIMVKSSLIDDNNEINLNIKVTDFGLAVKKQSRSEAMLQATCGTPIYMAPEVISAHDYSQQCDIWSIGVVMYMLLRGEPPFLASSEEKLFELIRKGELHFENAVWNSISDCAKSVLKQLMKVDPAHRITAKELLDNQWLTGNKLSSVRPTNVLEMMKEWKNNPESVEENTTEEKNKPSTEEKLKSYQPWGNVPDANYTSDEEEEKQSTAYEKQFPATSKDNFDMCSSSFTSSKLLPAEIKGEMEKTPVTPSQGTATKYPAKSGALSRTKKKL
For test [5], the target named is Mitogen-activated protein kinase 3 (Homo sapiens, UniProt P27361). Briefly: Selectivity interaction (KinomeScan (DiscoverX)) EUB0000666a MAPK3. The following applies: at 10 µM.
Sequence of Mitogen-activated protein kinase 3 (P27361 whole entry): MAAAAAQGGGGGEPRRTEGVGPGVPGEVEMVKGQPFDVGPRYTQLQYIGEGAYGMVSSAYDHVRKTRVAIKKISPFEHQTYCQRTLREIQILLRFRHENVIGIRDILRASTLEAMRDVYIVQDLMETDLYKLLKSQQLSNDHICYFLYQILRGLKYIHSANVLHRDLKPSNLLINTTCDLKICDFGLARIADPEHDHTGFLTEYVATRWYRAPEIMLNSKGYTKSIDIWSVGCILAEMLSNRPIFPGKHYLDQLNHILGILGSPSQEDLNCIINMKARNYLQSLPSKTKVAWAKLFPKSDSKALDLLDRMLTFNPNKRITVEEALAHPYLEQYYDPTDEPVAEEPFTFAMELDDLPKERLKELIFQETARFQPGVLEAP
Test [6] has as its target Glutamate receptor ionotropic, NMDA 1 (Homo sapiens) (UniProt Q05586). Briefly: Selectivity interaction (Panel of kinases, GPCRs, ion channels and transporters (enzymatic assay)) EUB0000266bCl GRIN1.
Test [7] addresses Serine/threonine-protein kinase pim-2 (Homo sapiens, UniProt Q9P1W9). Kind of test: Selectivity interaction (Kinase panel (literature)) EUB0001199aCl PIM2. The following applies: at 1 µM.
The target in test [8] is T1, Serine/threonine-protein kinase ULK1 (Homo sapiens) (UniProt O75385).
T1 sequence (whole entry): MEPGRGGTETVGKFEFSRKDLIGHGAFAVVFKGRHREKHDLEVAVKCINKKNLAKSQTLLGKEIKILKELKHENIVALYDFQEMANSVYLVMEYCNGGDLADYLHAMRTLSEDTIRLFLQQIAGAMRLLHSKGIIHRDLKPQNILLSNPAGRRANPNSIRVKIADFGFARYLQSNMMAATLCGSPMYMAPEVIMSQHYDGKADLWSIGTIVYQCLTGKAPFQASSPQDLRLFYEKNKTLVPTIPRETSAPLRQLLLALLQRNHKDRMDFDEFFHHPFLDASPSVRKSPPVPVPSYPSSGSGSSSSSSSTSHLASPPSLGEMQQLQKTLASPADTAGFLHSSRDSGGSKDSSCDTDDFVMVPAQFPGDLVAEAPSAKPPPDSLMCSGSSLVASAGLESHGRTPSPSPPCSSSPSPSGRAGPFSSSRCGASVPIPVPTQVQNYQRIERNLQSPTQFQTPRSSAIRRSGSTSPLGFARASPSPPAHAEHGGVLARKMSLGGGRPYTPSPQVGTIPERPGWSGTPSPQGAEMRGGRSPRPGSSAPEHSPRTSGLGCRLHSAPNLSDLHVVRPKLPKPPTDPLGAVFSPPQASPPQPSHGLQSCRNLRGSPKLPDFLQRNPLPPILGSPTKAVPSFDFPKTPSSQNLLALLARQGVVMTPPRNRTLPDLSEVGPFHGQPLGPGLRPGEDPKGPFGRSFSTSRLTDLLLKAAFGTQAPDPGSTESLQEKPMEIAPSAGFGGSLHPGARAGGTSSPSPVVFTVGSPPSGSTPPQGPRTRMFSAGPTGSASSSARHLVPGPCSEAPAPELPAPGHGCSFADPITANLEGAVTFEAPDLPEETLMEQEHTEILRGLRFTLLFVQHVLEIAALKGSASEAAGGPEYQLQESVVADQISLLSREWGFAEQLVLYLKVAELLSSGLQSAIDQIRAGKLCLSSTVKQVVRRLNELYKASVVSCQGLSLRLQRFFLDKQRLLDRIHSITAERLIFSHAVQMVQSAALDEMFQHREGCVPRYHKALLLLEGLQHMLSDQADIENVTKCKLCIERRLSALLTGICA
Kind of test: Selectivity interaction (KinomeScan (DiscoverX)) EUB0000695a ULK1. The following applies: at 100 nM.

The target of test [9] is Serine/threonine-protein kinase/endoribonuclease IRE1 (Homo sapiens) (UniProt O75460). Kind of test: Selectivity interaction (KinomeScan (DiscoverX)) EUB0000092b ERN1. The settings on record: at 10 µM.
Sequence of Serine/threonine-protein kinase/endoribonuclease IRE1 (Homo sapiens) (O75460 19-977 limits assumed): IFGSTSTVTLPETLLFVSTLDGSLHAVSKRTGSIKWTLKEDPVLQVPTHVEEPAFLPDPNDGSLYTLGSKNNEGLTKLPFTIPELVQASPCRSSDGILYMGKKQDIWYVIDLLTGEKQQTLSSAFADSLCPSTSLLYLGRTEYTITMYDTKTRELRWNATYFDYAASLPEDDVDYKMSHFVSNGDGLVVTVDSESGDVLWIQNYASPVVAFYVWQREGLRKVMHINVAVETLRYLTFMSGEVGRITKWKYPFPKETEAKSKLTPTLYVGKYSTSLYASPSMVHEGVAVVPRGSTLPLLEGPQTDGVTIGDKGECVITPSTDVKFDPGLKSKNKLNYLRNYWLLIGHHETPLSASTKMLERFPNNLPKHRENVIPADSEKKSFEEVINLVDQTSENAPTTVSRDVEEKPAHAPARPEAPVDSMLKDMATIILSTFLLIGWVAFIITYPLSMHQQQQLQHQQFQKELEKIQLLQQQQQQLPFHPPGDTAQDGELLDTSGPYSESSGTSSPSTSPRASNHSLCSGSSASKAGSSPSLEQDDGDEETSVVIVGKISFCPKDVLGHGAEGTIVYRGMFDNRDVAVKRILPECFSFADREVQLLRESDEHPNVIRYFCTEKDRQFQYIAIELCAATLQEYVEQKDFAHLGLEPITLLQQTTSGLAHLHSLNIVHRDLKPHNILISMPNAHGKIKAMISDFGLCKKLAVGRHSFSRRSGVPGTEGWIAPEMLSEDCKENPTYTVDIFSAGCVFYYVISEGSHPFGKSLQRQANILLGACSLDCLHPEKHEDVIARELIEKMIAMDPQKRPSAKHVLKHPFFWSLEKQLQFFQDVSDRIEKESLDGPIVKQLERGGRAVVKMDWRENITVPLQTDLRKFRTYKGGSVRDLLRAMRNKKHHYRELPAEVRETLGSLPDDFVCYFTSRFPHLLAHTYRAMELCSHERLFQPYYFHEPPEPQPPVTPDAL
In test [10] the target is T2, Muscle, skeletal receptor tyrosine-protein kinase (Homo sapiens) (UniProt O15146).
T2 sequence (whole entry): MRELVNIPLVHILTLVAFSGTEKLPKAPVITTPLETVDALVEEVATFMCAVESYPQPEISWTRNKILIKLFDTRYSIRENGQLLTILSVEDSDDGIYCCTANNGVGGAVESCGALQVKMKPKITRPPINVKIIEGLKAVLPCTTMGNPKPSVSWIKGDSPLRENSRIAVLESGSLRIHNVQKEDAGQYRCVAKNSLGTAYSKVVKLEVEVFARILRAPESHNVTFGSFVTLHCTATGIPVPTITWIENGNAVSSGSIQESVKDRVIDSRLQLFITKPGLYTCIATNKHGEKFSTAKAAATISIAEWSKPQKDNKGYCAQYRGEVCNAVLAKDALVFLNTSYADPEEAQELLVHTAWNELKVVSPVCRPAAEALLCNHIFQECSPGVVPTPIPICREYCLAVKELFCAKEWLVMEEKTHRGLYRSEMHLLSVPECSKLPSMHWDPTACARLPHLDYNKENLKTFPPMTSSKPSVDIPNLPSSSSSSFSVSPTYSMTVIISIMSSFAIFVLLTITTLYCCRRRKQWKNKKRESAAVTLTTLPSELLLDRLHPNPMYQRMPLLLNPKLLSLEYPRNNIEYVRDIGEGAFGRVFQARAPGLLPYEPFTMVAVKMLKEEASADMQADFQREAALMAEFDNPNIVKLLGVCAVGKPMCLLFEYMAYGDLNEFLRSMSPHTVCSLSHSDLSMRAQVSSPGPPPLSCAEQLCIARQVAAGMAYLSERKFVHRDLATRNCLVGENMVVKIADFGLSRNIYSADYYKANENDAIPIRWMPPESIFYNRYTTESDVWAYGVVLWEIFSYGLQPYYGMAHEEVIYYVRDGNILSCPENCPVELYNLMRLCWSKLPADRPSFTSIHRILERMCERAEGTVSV
Briefly: Selectivity interaction (KinomeScan (DiscoverX)) EUB0000092b MUSK. The following applies: at 10 µM.

The target in test [11] is Mitogen-activated protein kinase kinase kinase 11 (Homo sapiens) (UniProt Q16584). Kind of test: Selectivity interaction (KinomeScan (DiscoverX)) EUB0000595a MAP3K11. The settings on record: at 10 µM.
Sequence of Mitogen-activated protein kinase kinase kinase 11 (Homo sapiens) (Q16584 whole entry, looked up): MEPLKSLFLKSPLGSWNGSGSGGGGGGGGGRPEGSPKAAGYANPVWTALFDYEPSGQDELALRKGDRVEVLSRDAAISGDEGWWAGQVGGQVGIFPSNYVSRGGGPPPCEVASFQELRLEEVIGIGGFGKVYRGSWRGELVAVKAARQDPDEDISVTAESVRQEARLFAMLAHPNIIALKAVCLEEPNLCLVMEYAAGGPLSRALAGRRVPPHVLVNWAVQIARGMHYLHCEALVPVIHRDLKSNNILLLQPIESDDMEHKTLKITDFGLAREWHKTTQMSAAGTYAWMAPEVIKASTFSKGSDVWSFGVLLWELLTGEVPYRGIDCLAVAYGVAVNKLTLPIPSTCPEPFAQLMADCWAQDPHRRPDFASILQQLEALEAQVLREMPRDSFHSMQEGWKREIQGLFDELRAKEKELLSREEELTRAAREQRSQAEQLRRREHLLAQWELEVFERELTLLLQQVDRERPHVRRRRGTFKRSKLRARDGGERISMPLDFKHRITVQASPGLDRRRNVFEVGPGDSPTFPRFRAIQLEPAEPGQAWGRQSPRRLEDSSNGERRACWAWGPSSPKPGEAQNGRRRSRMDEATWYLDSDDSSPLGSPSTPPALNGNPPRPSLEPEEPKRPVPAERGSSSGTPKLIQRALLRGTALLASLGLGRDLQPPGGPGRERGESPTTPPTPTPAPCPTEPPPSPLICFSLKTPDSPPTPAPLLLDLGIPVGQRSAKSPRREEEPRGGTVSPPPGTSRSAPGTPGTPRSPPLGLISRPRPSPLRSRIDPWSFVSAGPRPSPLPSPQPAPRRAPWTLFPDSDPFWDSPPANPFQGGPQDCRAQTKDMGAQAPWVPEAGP

Sequence of Serine/threonine-protein kinase pim-2 (Q9P1W9 whole entry, looked up): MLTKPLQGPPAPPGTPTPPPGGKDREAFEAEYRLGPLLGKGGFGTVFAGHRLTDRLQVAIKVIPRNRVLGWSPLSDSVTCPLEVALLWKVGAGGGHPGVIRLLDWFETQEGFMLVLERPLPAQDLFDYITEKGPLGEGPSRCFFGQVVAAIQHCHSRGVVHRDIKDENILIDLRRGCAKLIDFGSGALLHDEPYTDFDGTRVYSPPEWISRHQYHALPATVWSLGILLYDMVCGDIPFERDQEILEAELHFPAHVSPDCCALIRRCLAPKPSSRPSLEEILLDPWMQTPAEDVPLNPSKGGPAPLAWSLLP

On to `Cn1cc(-n2cnc3c(NCc4nc5cc(Cl)c(Cl)cc5[nH]4)nc(N4CCOCC4)nc32)cn1`, for which the % of inhibition in test [1] was found to be 83.4%; in test [2], 52.8%.

For the compound `CNC(=O)Nc1ccc(-c2nc(N3CC4CCC(C3)O4)c3cnn(C4CCC5(CC4)OCCO5)c3n2)cc1`, the % of control in [3] came to 100%; in test [4] it was 82%.

In turn, `O=C(NOC[C@H](O)CO)c1ccc(F)c(F)c1Nc1ccc(I)cc1F` registered a % of control in test [5] of 86%.

In turn, `CCn1c(-c2nc3cc(C(=O)N4CCCC(N)C4)ccc3n2C)cc2ccccc21` (stereo unspecified) gave a pXC50 in test [6] of under 4.3 M.

On to `CN1Cc2nccc(-c3cn(C)nc3-c3ccc(F)cc3)c2C1=O`, for which the % of inhibition in test [7] was -2%.

In turn, `Cc1cc(F)c(C(=O)Nc2cccc(-c3nncn3C(C)C)n2)cc1-n1cnc(C2CC2)c1` returned a % of control in test [8] of 100%.

In the case of `CCC(=O)N1CCN(c2ccc(-n3c(=O)ccc4cnc5ccc(-c6cnc7ccccc7c6)cc5c43)cc2C(F)(F)F)CC1`, the % of control in [9] and in [10] was 100% each time.

Take `COCC(=O)NC/C=C/c1ccc2ncnc(Nc3ccc(Oc4ccc(C)nc4)c(C)c3)c2c1` [CP-724714]: the % of control in test [11] came out at 92%.
